Results from ChEMBL document CHEMBL4396926, “Design, Synthesis and Anticancer Evaluation of New Substituted Thiophene-Quinoline Derivatives” (Bioorg Med Chem, 2019).

Assays:
Format in all cases: functional
HepG2 [1] = experiment: Cytotoxicity against human HepG2 cells assessed as increase in growth inhibition by measuring decrease in cell viability incubated for 72 hrs and measured after 2 hrs by microplate reader based WST-1 assay
HeLa [2] = experiment: Cytotoxicity against human HeLa cells assessed as increase in growth inhibition by measuring decrease in cell viability incubated for 72 hrs and measured after 2 hrs by microplate reader based WST-1 assay
HCT-116 [3] = experiment: Cytotoxicity against human HCT116 cells assessed as increase in growth inhibition by measuring decrease in cell viability incubated for 72 hrs and measured after 2 hrs by microplate reader based WST-1 assay
MCF7 [4] = experiment: Cytotoxicity against human MCF7 cells assessed as increase in growth inhibition by measuring decrease in cell viability incubated for 72 hrs and measured after 2 hrs by microplate reader based WST-1 assay
HepG2 [5] = experiment: Cytotoxicity against human HepG2 cells assessed as cell growth inhibition at 3.125 to 100 uM incubated for 72 hrs and measured after 2 hrs by microplate reader based WST-1 assay relative to control
HeLa [6] = experiment: Cytotoxicity against human HeLa cells assessed as cell growth inhibition at 3.125 to 100 uM incubated for 72 hrs and measured after 2 hrs by microplate reader based WST-1 assay relative to control
HCT-116 [7] = experiment: Cytotoxicity against human HCT116 cells assessed as cell growth inhibition at 3.125 to 100 uM incubated for 72 hrs and measured after 2 hrs by microplate reader based WST-1 assay relative to control
MCF7 [8] = experiment: Cytotoxicity against human MCF7 cells assessed as cell growth inhibition at 3.125 to 100 uM incubated for 72 hrs and measured after 2 hrs by microplate reader based WST-1 assay relative to control
HeLa [9] = experiment: Induction of apoptosis in human HeLa cells assessed as increase in caspase 9 activation by measuring fold increase in caspase 9 level by fluorescence based solid phase sandwich ELISA
MCF7 [10] = experiment: Induction of apoptosis in human MCF7 cells assessed as increase in caspase 9 activation by measuring fold increase in caspase 9 level by fluorescence based solid phase sandwich ELISA
HeLa [11] = experiment: Induction of apoptosis in human HeLa cells assessed as increase in caspase 3 activation by measuring fold increase in caspase 3 level by fluorescence based solid phase sandwich ELISA
MCF7 [12] = experiment: Induction of apoptosis in human MCF7 cells assessed as increase in caspase 3 activation by measuring fold increase in caspase 3 level by fluorescence based solid phase sandwich ELISA
[13] = Homo sapiens, HepG2, read-out: IC50
[14] = Homo sapiens, HeLa, read-out: IC50
[15] = Homo sapiens, HCT-116, read-out: IC50
[16] = Homo sapiens, MCF7, read-out: IC50

C#CCOC(c1cccs1)c1cc2ccccc2nc1Cl (stereo unspecified)
IC50 (HepG2 [1]; [13]): > 100 µM
IC50 (HeLa [2]; [14]): 34.7 µM
IC50 (HCT-116 [3]; [15]): > 100 µM
IC50 (MCF7 [4]; [16]): > 100 µM

COc1ccc(-n2cc(COC(c3cccs3)c3cc4ccccc4nc3Cl)nn2)cc1 (stereo unspecified)
growth inhibition (GI) (HepG2 [5]): <10%
growth inhibition (GI) (HeLa [6]): <10%
growth inhibition (GI) (HCT-116 [7]): 32.52%
growth inhibition (GI) (MCF7 [8]): <10%

Cc1ccc(-c2cc(COC(c3cccs3)c3cc4ccccc4nc3Cl)on2)cc1 (stereo unspecified)
growth inhibition (GI) (HepG2 [5]): 31.77%
growth inhibition (GI) (HeLa [6]): <10%
growth inhibition (GI) (HCT-116 [7]): 43.91%
growth inhibition (GI) (MCF7 [8]): 22.03%
IC50 (HepG2 [1]; hepg2): Not Active
IC50 (HeLa [2]; hela): Not Active
IC50 (HCT-116 [3]; [15]): 115 µM
IC50 (MCF7 [4]; mcf7): Not Active

FC(F)(F)c1ccc(-n2cc(COC(c3cccs3)c3cc4ccccc4nc3Cl)nn2)cc1 (stereo unspecified)
growth inhibition (GI) (HepG2 [5]): <10%
growth inhibition (GI) (HeLa [6]): <10%
growth inhibition (GI) (HCT-116 [7]): 35.86%
growth inhibition (GI) (MCF7 [8]): <10%

Clc1nc2ccccc2cc1C(OCc1ccc(Br)cc1)c1cccs1 (stereo unspecified)
growth inhibition (GI) (HepG2 [5]): <10%
growth inhibition (GI) (HeLa [6]): 30.89%
growth inhibition (GI) (HCT-116 [7]): 21.98%
growth inhibition (GI) (MCF7 [8]): <10%

Oc1ccc(-c2cc(COC(c3cccs3)c3cc4ccccc4nc3Cl)on2)cc1 (stereo unspecified)
growth inhibition (GI) (HepG2 [5]): 64.51%
growth inhibition (GI) (HeLa [6]): <10%
growth inhibition (GI) (HCT-116 [7]): 14.27%
growth inhibition (GI) (MCF7 [8]): <10%
IC50 (HepG2 [1]; [13]): 178 µM
IC50 (HeLa [2]; hela): Not Active
IC50 (HCT-116 [3]; hct-116): Not Active
IC50 (MCF7 [4]; mcf7): Not Active

COc1ccc(-c2cc(COC(c3cccs3)c3cc4ccccc4nc3Cl)on2)cc1 (stereo unspecified)
growth inhibition (GI) (HepG2 [5]): 17.93%
growth inhibition (GI) (HeLa [6]): <10%
growth inhibition (GI) (HCT-116 [7]): 20.31%
growth inhibition (GI) (MCF7 [8]): <10%

O=c1[nH]cc(F)c(=O)[nH]1 [FLUOROURACIL]
IC50 (HepG2 [1]; [13]): > 100 µM
IC50 (HeLa [2]; [14]): 20.4 µM
IC50 (HCT-116 [3]; [15]): 63.9 µM
IC50 (MCF7 [4]; [16]): > 100 µM
fold change (FC) (HeLa [9]): 94.4
fold change (FC) (MCF7 [10]): 26 - 26.1

COc1cc(-c2cc(COC(c3cccs3)c3cc4ccccc4nc3Cl)on2)cc(OC)c1OC (stereo unspecified)
growth inhibition (GI) (HepG2 [5]): 14.57%
growth inhibition (GI) (HeLa [6]): <10%
growth inhibition (GI) (HCT-116 [7]): <10%
growth inhibition (GI) (MCF7 [8]): <10%

CNC(=O)c1cc(Oc2ccc(NC(=O)Nc3ccc(Cl)c(C(F)(F)F)c3)cc2)ccn1 [SORAFENIB]
fold change (FC) (HeLa [11]): 35.5
fold change (FC) (MCF7 [12]): 34.2

FC(F)(F)c1cccc(COC(c2cccs2)c2cc3ccccc3nc2Cl)c1 (stereo unspecified)
growth inhibition (GI) (HepG2 [5]): <10%
growth inhibition (GI) (HeLa [6]): 42.42%
growth inhibition (GI) (HCT-116 [7]): 23.22%
growth inhibition (GI) (MCF7 [8]): 52.9%
IC50 (HepG2 [1]; hepg2): Not Active
IC50 (HeLa [2]; hela): Not Active
IC50 (HCT-116 [3]; hct-116): Not Active
IC50 (MCF7 [4]; [16]): 101 µM
